Results from patent US5246947A, “Substituted pyridinylamino-1,2-benzisothiazoles and their use for treating depression” (Hoechst-Roussel Pharmaceuticals Incorporated, priority 1992, dated 1993).
Where a name gives a salt, the structure may show the parent alone. Read-outs that look alike come from different tables or passages of the source.

How the values were obtained:
[1] = biological target: T1, Brain AChE (acetylcholinesterase) (Rattus norvegicus, UniProt P37136); test: biochemical; set-up: species or system rat (male Wistar); settings: rat striatum; 5 mM acetylthiocholine final; pH 7.2; Table 1; read-out: Inhibitory Concentration Brain AChE
T1 construct: corpora striata dissected free, weighed and homogenized in 19 volumes; from tissue; host or cells: corpora striata of male Wistar rats, whole homogenate
T1 sequence (P37136 32-614): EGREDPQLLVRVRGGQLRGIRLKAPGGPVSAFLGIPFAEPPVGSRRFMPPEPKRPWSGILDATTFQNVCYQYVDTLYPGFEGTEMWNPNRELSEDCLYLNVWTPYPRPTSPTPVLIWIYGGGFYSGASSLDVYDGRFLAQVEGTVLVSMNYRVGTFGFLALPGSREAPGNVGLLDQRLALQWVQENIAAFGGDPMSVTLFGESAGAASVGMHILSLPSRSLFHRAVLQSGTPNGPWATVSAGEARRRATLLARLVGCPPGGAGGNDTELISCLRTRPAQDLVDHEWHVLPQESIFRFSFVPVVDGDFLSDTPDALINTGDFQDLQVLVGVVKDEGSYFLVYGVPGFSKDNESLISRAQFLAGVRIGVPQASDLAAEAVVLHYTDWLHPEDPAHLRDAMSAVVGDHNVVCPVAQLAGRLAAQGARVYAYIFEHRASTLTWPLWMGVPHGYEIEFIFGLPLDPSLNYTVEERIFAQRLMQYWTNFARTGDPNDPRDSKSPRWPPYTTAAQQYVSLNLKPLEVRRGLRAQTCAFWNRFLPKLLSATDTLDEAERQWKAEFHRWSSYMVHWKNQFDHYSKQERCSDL
Description: Cholinesterases are found throughout the body, both in the brain and in serum. However, only brain acetylcholinesterase (AChE) distribution is correlated with central cholinergic innervation. […] We have determined in vitro inhibition of acetylcholinesterase activity in rat striatum according to the method described below.
In Vitro Inhibition of Acetylcholinesterase Activity in Rat Striatum
The method described below was used in this invention for assaying anticholinesterase activity. This is a modification of the method of Ellman et al., Biochem. Pharmacol. 7, 88 (1961).
1. 0.05M Phosphate buffer, pH 7.2
(c) add (a) to (b) until pH reaches 7.2
4. A 2 mM stock solution of the test drug is made up in a suitable solvent and brought to volume with 0.5 mM DTNB (reagent 3). Drugs are serially diluted (1:10) such that the final concentration (in cuvette) is 10^-4 M and screened for activity. If active, IC50 values are determined from the inhibitory activity of subsequent concentrations.
Enzyme activity is measured with the Beckman DU-50 spectrophotometer. This method can be used for IC50 determinations and for measuring kinetic constants.
Reagents are added to the blank and sample cuvettes as follows:
This program also calculates the rate of absorbance change for each cuvette.
Substrate concentration is 10 mM diluted 1:2 in assay yielding final concentration of 5 mM.

[2] = biological target: T2, α2-Receptor (Rattus norvegicus, UniProt P22909); test: [^3 H]-Clonidine Binding: α2-Receptor; set-up: species or system rat (male Wistar)
T2 construct: the cortical tissue rapidly dissected; from tissue; host or cells: cortical tissue of male Wistar rats, washed membrane suspension
T2 sequence (P22909 1-465): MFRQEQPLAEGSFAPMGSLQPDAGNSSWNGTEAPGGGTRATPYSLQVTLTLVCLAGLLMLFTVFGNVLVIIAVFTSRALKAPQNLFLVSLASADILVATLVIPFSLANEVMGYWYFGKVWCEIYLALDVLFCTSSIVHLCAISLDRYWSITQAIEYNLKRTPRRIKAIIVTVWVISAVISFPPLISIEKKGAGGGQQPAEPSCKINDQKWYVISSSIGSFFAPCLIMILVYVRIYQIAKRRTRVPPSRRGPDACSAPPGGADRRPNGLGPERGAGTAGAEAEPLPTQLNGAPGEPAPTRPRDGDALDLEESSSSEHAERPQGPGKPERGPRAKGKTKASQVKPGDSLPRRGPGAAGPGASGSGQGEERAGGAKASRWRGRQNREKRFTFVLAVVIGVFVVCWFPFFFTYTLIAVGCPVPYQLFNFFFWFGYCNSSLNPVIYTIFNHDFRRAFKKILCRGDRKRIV
Method: [^3 H]-Clonidine Binding: α2 -Receptor
The purpose of this assay is to assess the interaction of compounds with central α2 -receptors.
a. 57.2 g Tris HCl 16.2 Tris Base-bring to 1 liter (0.5M Tris buffer, pH 7.7) b. Make a 1:10 dilution in distilled H2 O (0.05M Tris buffer, pH 7.7)
Tris buffer containing physiological ions b. Dilute 1:10 in distilled H2 O. This yields 0.05 M Tris HCl, pH 7.7; containing NaCl (120 mM), KCl (5 mM), CaCl2 (2 mM) and MgCl2 (1 mM) 3. [4-^3 H]-Clonidine hydrochloride (20-30 Ci/mmol) is obtained from New England Nuclear.
Clonidine-HCl is obtained from Boehringer Ingelheim. A stock solution of 0.1 mM clonidine is made up to determine nonspecific binding. This yields a final concentration of 1 μM in the assay (20 μl to 2 ml).
Male Wistar rats are sacrified by decapitation and the cortical tissue rapidly dissected. The tissue is homogenized in 50 volumes of 0.05M Tris buffer, pH 7.7 (buffer 1b) with the Brinkman Polytron, then centrifuged at 40,000 g for 15 minutes. […]
Tissue homogenates are incubated for 20 minutes at 25° C. with 3 nM [^3 H]-clonidine and varying drug concentrations, then immediately filtered under reduced pressure on Whatman GF/B filters. […] Ten ml of liquiscint counting solution is added to each sample which is then counted by liquid scintillation spectroscopy. […] IC50 values are calculated using log-probit analysis.

[3] = tested on: norepinephrine (NE) uptake; test: [^3 H]-Norepinephrine Uptake in Rat Whole Brain Synaptosomes; assay type: biochemical, rat (male CR Wistar); settings: [^3 H]-NE 50 nM, 37° C., 5 min, Table 2
[4] = tested on: serotonin (5-hydroxytryptamine, 5HT) uptake; test: [^3 H]-Serotonin Uptake in Rat Whole Brain and Hypothalamic Synaptosomes; assay type: biochemical, rat (male CR Wistar); settings: [^3 H]-5HT 50 nM, 37° C., 5 min, Table 2
Method: [^3 H]-Serotonin Uptake in Rat Whole Brain and Hypothalamic Synaptosomes
This activity is determined in an assay which measures [^3 H]-serotoninuptake in rat whole brain and hypothalamic synaptosomes.
Male CR Wistar rats (100-125 g)
Prepare a 1 liter batch containing the following salts.
3. A 0.1 mM stock solution of serotonin creatinine SO4 is made up in 0.01N HCl. This is used to dilute the specific activity of the radiolabeled 5HT.
4. 5-[1,2-^3 H(N)]-Hydroxytryptamine creatinine sulfate (serotonin), specific activity 20-30 Ci/mmol, is used.
The final desired concentration of [^3 H]-5HT in the assay is 50 nM. The dilution factor is 0.8. The KHBB is made up to contain 62.5 nM of [^3 H]-5HT.
5. For most assays, a 1 mM stock solution of the test compound is made up in a suitable solvent and serially diluted such that the final concentration in the assay ranges from 2×10^-8 to 2×10^-5 M. Seven concentrations are used for each assay.
Male Wistar rats are decapitated and the brain rapidly removed.
Tubes are incubated at 37° C. under a 95% O2 /5% CO2 atmosphere for 5 minutes. For each assay, 3 tubes are incubated with 20 μl of vehicle at 0° C. in an ice bath. After incubation all tubes are immediately centrifuged at 4000 g for 10 minutes. […] The tubes are vigorously vortexted, decanted into scintillation vials, and counted in 10 ml of Liquiscint scintillation counting cocktail. […]

[5] = tested on: TPA-induced ear edema; test: TPA-Induced Ear Edema (TPAEE); assay type: in vivo, mouse (female Swiss Webster); settings: topical, ear plug weight after about 5 hours, Table 3
Method: The dermatological activity of the compounds was ascertained according to the following method.
TPA-Induced Ear Edema (TPAEE)
The purpose of this assay was to determine the ability of a topically applied compound to prevent ear edema induced by topical application of TPA (phorbol 12-myristate acetate). Female Swiss Webster mice topically received TPA (10 μg/ear) on the right ear and vehicle on the left ear. […] After about 5 hours, the animals are sacrificed and a 4 mm diameter plug is taken from each ear and weighed. The difference between the right and left ear plug weights for each animal was determined. The antiinflammatory activity of the test compound is expressed as the mean percent change in ear plug weight of the treated animals compared to the mean percent change in the plug weight of the control animals. (Young, J. M. et al., J. Invest. Dermatol., 80 (1983), pp. 48-52.)

How did the IC50 [1] turn out when CCCN(c1ccncc1)c1ccc2c(ccn2C)c1 [1-Methyl-5-(propyl-4-pyridinylamino)-1H-indole maleate] was run?
Its IC50 is 31900 nM.

And the IC50 ([2]; rat cortical tissue, 3 nM [^3 H]-clonidine, 25° C., 20 min, Table 2, read-out: [^3 H]-Clonidine Binding IC50)?
Its IC50 is 330 nM.

What about the IC50 [3] of the same molecule?
Its IC50 is 34 nM.

And the IC50 [4]?
Its IC50 is 760 nM.

With CN(C)CCC=C1c2ccccc2CCc2ccccc21 [Amitriptyline] as the molecule, how does the IC50 [3] read?
The IC50 was 7700 nM.

With COc1ccc2c(c1)c(CC(=O)O)c(C)n2C(=O)c1ccc(Cl)cc1 [Indomethacin, reference compound] as the molecule, how does the “Edema Reduction” value ([5]; at 1 mg/ear) read?
The value was -86%.

How did the IC50 [3] turn out when CNCCC=C1c2ccccc2CCc2ccccc21 [Notriptyline] was run?
The IC50 was 4000 nM.

Which IC50 [2] does the source give for Cn1ccc2cc(Nc3ccncc3)ccc21 [1-Methyl-5-(4-pyridinylamino)-1H-indole] here?
Its IC50 is 12 nM.

And the “Edema Reduction” value ([5]; 10 μg/ear)?
The value was -67%.
